Earlier results, collected in US7205293B2, “Benodiazepine spirohydantoin CGRP receptor antagonists” (Merck & Co., Inc., priority 2003, dated 2007).
No end group written: not given here.

Legend:
facial blood flow [1] = details: marmoset, electrical stimulation of the trigeminal ganglion
[2] = tested on: middle meningeal artery diameter; details: rats, electrical stimulation of the dura mater, prior administration
facial blood flow [3] = details: rat, trigeminal ganglion stimulation

Row | Compound | effect on increase in facial blood flow (facial blood flow [1]) | effect on increase of middle meningeal artery diameter [2] | effect on increase of facial blood flow (facial blood flow [3])
1 | NCCCC[C@H](NC(=O)[C@@H](Cc1cc(Br)c(O)c(Br)c1)NC(=O)N1CCC(N2Cc3ccccc3NC2=O)CC1)C(=O)N1CCN(c2ccncc2)CC1 [BIBN4096BS] | blocked | – | –
2 | CGRP(8–37): a peptide CGRP antagonist (VTHRLAGLLSRSGGVVKNNFVPTNVGSKAF; ends and bridges not checked; UniProt P06881 90-119, looked up, fragment) | – | blocked | inhibited
